Test results from PubChem BioAssay AID1963841 (Molecular Pharmacology Branch, DTP, NCI, 2024).

System: 439559-082-T-J2-PDC spheroid viability
Assay: Anticancer human tumor 439559-082-T-J2-PDC patient-derived colon adenocarcinoma cell line growth inhibition [POLQ]
Settings: spheroids with HUVEC and MSC; for IC50: curve of first compound; for viability, T/C: stronger effect = lower value
Procedure, shortened: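 Growth inhibition in 3D: complex spheroids (tumor PDC, HUVEC, MSC) treated with POLQ inhibitor combinations; where Cmax unknown, highest tested concentration 10 microM, except SN-38 at 1 microM.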

[1] = second compound 0.0316 µM, first compound 0.0316 µM
[2] = second compound 0.0316 µM, first compound 0.1 µM
[3] = second compound 0.0316 µM, first compound 0.316 µM
[4] = second compound 0.0316 µM, first compound 1 µM
[5] = second compound 0.0316 µM, first compound 3.16 µM
[6] = second compound 0.0316 µM, first compound 10 µM
[7] = second compound 0.1 µM, first compound 0.0316 µM
[8] = second compound 0.1 µM, first compound 0.1 µM
[9] = second compound 0.1 µM, first compound 0.316 µM
[10] = second compound 0.1 µM, first compound 1 µM
[11] = second compound 0.1 µM, first compound 3.16 µM
[12] = second compound 0.1 µM, first compound 10 µM
[13] = second compound 0.316 µM, first compound 0.0316 µM
[14] = second compound 0.316 µM, first compound 0.1 µM
[15] = second compound 0.316 µM, first compound 0.316 µM
[16] = second compound 0.316 µM, first compound 1 µM
[17] = second compound 0.316 µM, first compound 3.16 µM
[18] = second compound 0.316 µM, first compound 10 µM
[19] = second compound 1 µM, first compound 0.0316 µM
[20] = second compound 1 µM, first compound 0.1 µM
[21] = second compound 1 µM, first compound 0.316 µM
[22] = second compound 1 µM, first compound 1 µM
[23] = second compound 1 µM, first compound 3.16 µM
[24] = second compound 1 µM, first compound 10 µM
[25] = second compound 3.16 µM, first compound 0.0316 µM
[26] = second compound 3.16 µM, first compound 0.1 µM
[27] = second compound 3.16 µM, first compound 0.316 µM
[28] = second compound 3.16 µM, first compound 1 µM
[29] = second compound 3.16 µM, first compound 3.16 µM
[30] = second compound 3.16 µM, first compound 10 µM
[31] = second compound 10 µM, first compound 0.0316 µM
[32] = second compound 10 µM, first compound 0.1 µM
[33] = second compound 10 µM, first compound 0.316 µM
[34] = second compound 10 µM, first compound 1 µM
[35] = second compound 10 µM, first compound 3.16 µM
[36] = second compound 10 µM, first compound 10 µM
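Further: spheroids exposed to compounds for seven days before readout.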
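Wherever viability, T/C is given: 100% = DMSO vehicle control viability.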

CC1COCCN1c1cc(-c2ccnn2C)c2ccnc(-c3ccn[nH]3)c2n1 (stereo unspecified) + Nc1ccc(C#CCN(C(=O)Cc2ncc(C(F)(F)F)cc2C(F)(F)F)c2ccc(F)cc2)nn1
IC50 (second compound 0.0316 µM): 475 nM | IC50 (second compound 0.1 µM): > 10000 nM | IC50 (second compound 0.316 µM): > 10000 nM | IC50 (second compound 1 µM): 981 nM | IC50 (second compound 3.16 µM): 313 nM | IC50 (second compound 10 µM): 293 nM | viability, T/C [1]: 105% | viability, T/C [2]: 82.9% | viability, T/C [3]: 50.7% | viability, T/C [4]: 41.2% | viability, T/C [5]: 57% | viability, T/C [6]: 49.1% | viability, T/C [7]: 105% | viability, T/C [8]: 97.1% | viability, T/C [9]: 57.5% | viability, T/C [10]: 48.9% | viability, T/C [11]: 55.8% | viability, T/C [12]: 50.3% | viability, T/C [13]: 105% | viability, T/C [14]: 89.5% | viability, T/C [15]: 52.9% | viability, T/C [16]: 49.9% | viability, T/C [17]: 57.1% | viability, T/C [18]: 52.3% | viability, T/C [19]: 108% | viability, T/C [20]: 84.7% | viability, T/C [21]: 60.1% | viability, T/C [22]: 42.4% | viability, T/C [23]: 56.8% | viability, T/C [24]: 46% | viability, T/C [25]: 111% | viability, T/C [26]: 78.1% | viability, T/C [27]: 50.1% | viability, T/C [28]: 43.1% | viability, T/C [29]: 52.2% | viability, T/C [30]: 47.9% | viability, T/C [31]: 93.3% | viability, T/C [32]: 74.3% | viability, T/C [33]: 47.4% | viability, T/C [34]: 48.7% | viability, T/C [35]: 54.2% | viability, T/C [36]: 42.8%

CC1COCCN1c1cc(-c2ccnn2C)c2ccnc(-c3ccn[nH]3)c2n1 (stereo unspecified) + Cc1cccc(N(C)C(=O)C2C(O)CCN2c2nc(C)cc(C(F)(F)F)c2C#N)c1
IC50 (second compound 0.0316 µM): 557 nM | IC50 (second compound 0.1 µM): 397 nM | IC50 (second compound 0.316 µM): 311 nM | IC50 (second compound 1 µM): 478 nM | IC50 (second compound 3.16 µM): 291 nM | IC50 (second compound 10 µM): 841 nM | viability, T/C [1]: 91% | viability, T/C [2]: 79.8% | viability, T/C [3]: 50.9% | viability, T/C [4]: 49.7% | viability, T/C [5]: 53.6% | viability, T/C [6]: 43.6% | viability, T/C [7]: 95.5% | viability, T/C [8]: 81.1% | viability, T/C [9]: 51.2% | viability, T/C [10]: 44.3% | viability, T/C [11]: 49.4% | viability, T/C [12]: 43.3% | viability, T/C [13]: 87.7% | viability, T/C [14]: 80.3% | viability, T/C [15]: 49.5% | viability, T/C [16]: 47.8% | viability, T/C [17]: 51.6% | viability, T/C [18]: 40.8% | viability, T/C [19]: 92.9% | viability, T/C [20]: 76.9% | viability, T/C [21]: 52% | viability, T/C [22]: 46.2% | viability, T/C [23]: 51.4% | viability, T/C [24]: 37.4% | viability, T/C [25]: 89% | viability, T/C [26]: 76.8% | viability, T/C [27]: 47.2% | viability, T/C [28]: 46.7% | viability, T/C [29]: 55.8% | viability, T/C [30]: 42% | viability, T/C [31]: 82.3% | viability, T/C [32]: 72.3% | viability, T/C [33]: 50.6% | viability, T/C [34]: 49.7% | viability, T/C [35]: 49.8% | viability, T/C [36]: 36.8%

CCCS(=O)(=O)Nc1ccc(F)c(C(=O)c2c[nH]c3ncc(-c4ccc(Cl)cc4)cc23)c1F + COC1C(OC(N)=O)C(O)C(Oc2ccc3c(O)c(NC(=O)c4ccc(O)c(CC=C(C)C)c4)c(=O)oc3c2C)OC1(C)C
IC50 (second compound 0.0316 µM): > 10000 nM | IC50 (second compound 0.1 µM): > 10000 nM | IC50 (second compound 0.316 µM): > 10000 nM | IC50 (second compound 1 µM): > 10000 nM | IC50 (second compound 3.16 µM): > 10000 nM | IC50 (second compound 10 µM): > 10000 nM | viability, T/C [1]: 103% | viability, T/C [2]: 109% | viability, T/C [3]: 96.6% | viability, T/C [4]: 95.8% | viability, T/C [5]: 99.7% | viability, T/C [6]: 70% | viability, T/C [7]: 108% | viability, T/C [8]: 107% | viability, T/C [9]: 99.9% | viability, T/C [10]: 102% | viability, T/C [11]: 100% | viability, T/C [12]: 67.9% | viability, T/C [13]: 104% | viability, T/C [14]: 106% | viability, T/C [15]: 101% | viability, T/C [16]: 92.9% | viability, T/C [17]: 94.2% | viability, T/C [18]: 65.8% | viability, T/C [19]: 99.2% | viability, T/C [20]: 104% | viability, T/C [21]: 102% | viability, T/C [22]: 103% | viability, T/C [23]: 105% | viability, T/C [24]: 68.4% | viability, T/C [25]: 93.7% | viability, T/C [26]: 103% | viability, T/C [27]: 94.3% | viability, T/C [28]: 95.4% | viability, T/C [29]: 93.1% | viability, T/C [30]: 67.9% | viability, T/C [31]: 103% | viability, T/C [32]: 95.2% | viability, T/C [33]: 100% | viability, T/C [34]: 99.2% | viability, T/C [35]: 98.3% | viability, T/C [36]: 71.4%
